This is an account of results in ChEMBL document CHEMBL4371025, “Discovery and evaluation of novel FAAH inhibitors in neuropathic pain model” (Bioorg Med Chem Lett, 2019).

Series [1] can be described thus: Cmax in Sprague-Dawley rat at 3 mg/kg, po administered as single dose via gavage by LC-MS/MS analysis. Type of series: ADME, organism-based. Set-up: dose 3 mg/kg, route oral. Conditions: in vivo.
Series [2] can be described thus: Intrinsic metabolic stability in rat liver microsomes assessed as metabolic turnover over per mg protein at 1 uM preincubated for 5 mins followed by NADPH cofactor addition and measured after 30 mins by LC-MS/MS analysis. The conditions noted are these: 0.5 h. Type of series: ADME, Microsome.
Series [3] can be described thus: Elimination half life in Sprague-Dawley rat at 1 mg/kg, iv administered as single dose by LC-MS/MS analysis. Type of series: ADME, organism-based. Conditions: in vivo, read-out: beta t1/2 (converted).
The nature of series [4]: Volume of distribution at steady state in Sprague-Dawley rat at 1 mg/kg, iv administered as single dose by LC-MS/MS analysis. Type of series: ADME, organism-based. The conditions noted are these: in vivo, read-out: Vdss.
The target in series [5] is T1, Fatty-acid amide hydrolase 1 (Rattus norvegicus, UniProt P97612).
T1 sequence (P97612 whole entry): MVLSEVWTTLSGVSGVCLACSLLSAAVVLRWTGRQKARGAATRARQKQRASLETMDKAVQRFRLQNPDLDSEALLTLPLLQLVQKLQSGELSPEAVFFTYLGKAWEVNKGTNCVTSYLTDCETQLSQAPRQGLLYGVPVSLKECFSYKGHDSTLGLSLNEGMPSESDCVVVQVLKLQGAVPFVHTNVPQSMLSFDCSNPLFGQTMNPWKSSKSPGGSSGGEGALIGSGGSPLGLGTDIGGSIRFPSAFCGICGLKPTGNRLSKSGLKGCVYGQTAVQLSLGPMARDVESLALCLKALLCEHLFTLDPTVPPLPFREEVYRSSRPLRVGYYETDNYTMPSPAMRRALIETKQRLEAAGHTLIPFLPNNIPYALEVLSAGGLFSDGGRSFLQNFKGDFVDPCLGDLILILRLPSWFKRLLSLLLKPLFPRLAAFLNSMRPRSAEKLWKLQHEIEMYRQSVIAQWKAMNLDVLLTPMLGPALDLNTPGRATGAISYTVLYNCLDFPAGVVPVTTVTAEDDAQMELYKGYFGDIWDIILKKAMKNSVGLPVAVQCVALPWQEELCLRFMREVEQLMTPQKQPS
Briefly: Inhibition of rat FFAH expressed in Escherichia coli using AAMCA as substrate incubated for 1 min measured for 50 mins by fluorescence assay.

Series [6] can be described thus: AUC (0 to 48 hrs) in Sprague-Dawley rat at 3 mg/kg, po administered as single dose via gavage by LC-MS/MS analysis. Type of series: ADME, organism-based. Set-up: dose 3 mg/kg, time < 48 hr, route oral. Conditions: in vivo.
A short description of series [7]: Clearance in Sprague-Dawley rat at 1 mg/kg, iv administered as single dose by LC-MS/MS analysis. The conditions noted are these: in vivo. Type of series: ADME, organism-based.
The nature of series [8]: Oral bioavailability in Sprague-Dawley rat at 3 mg/kg administered as single dose via gavage by LC-MS/MS analysis. Conditions: in vivo. Type of series: ADME, organism-based.
Series [9] is described as follows: AUC (0 to 48 hrs) in Sprague-Dawley rat at 1 mg/kg, iv administered as single dose by LC-MS/MS analysis. Type of series: ADME, organism-based. Set-up: dose 1 mg/kg, time < 48 hr, route intravenous. Conditions: in vivo.
Series [10] can be described thus: Intrinsic metabolic stability in human liver microsomes assessed as metabolic turnover rate per mg protein at 1 uM preincubated for 5 mins followed by NADPH cofactor addition and measured after 30 mins by LC-MS/MS analysis. Type of series: ADME, Microsome. Conditions: 0.5 h. Background: Liver microsomes are a subcellular fraction often used to study metabolism.

The Cmax is the maximum level reached in the sampled fluid or tissue. A word on the IC50: it is the concentration at which inhibition is half-maximal. Broadly, the AUC(0-t) is the area under the concentration-time curve up to a stated or last time point. Read a high AUC(0-t) as more exposure. Broadly, the clearance is the volume of plasma or blood freed of the substance per unit of time. Low readings indicate a low capacity for elimination, high ones a high capacity for elimination. A word on the bioavailability: it is dose-corrected exposure relative to a reference, in per cent. The low end stands for poor availability, the high end for good availability. For the compound `O=C(NC1CCC(=Cc2cccc(Oc3ccc(C(F)(F)F)cn3)c2)CC1)c1cnc2[nH]ccc2c1` (racemic), the Cmax in [1] worked out at 190 nM. Also, the Drug metabolism was 0.04 nmol/min/mg in series [2] and 0.08 nmol/min/mg in series [10]. Also, in [3], the half-life was 438 min. For the same compound, in series [4], the Vd worked out at 1 L/kg. The compound further returned an IC50 in series [5] of 17.2 nM. For the same compound, the AUC(0-t) at 48 h in [6] was determined as 3 µM·h; in series [9] it was 14.3 µM·h. For the same compound, the clearance in [7] amounted to 2.2 mL/min/kg. This compound also came in with a bioavailability in series [8] of 7.2%.
